# Test results reported in patent publication US20100310420A1, “SENSORS” (THE TRUSTEES OF PRINCETON UNIVERSITY, priority 2003, published 2010).
# How the values were obtained:
# [1] = tested on: wild type aspartate responsive control cells; experiment: Swarming of wild type control cells grown with methyl-D-aspartate; format: cell-based, E. coli; details: grown in the presence vs absence of methyl-D-aspartate
# Method: (§1) eJSmcp1[pJStari1, pJSxcmcp1] is grown in the absence and in the presence of methyl-D-aspartate.
# [2] = tested on: eJSmcp1[pJStari1, pJSxcmcp1]; experiment: Swarming of eJSmcp1[pJStari1, pJSxcmcp1] grown with methyl-D-aspartate; format: cell-based, E. coli; details: grown in the presence vs absence of methyl-D-aspartate; Tar-expressing transformed strain
# Method: as §1
substance,measurement,setting,value
methyl-D-aspartate,Swarming,[1],same results are seen
same,Swarming,[2],Swarming is seen in the presence of the aspartate but not in its absence
